Consider two compounds from paper PMC10699557, “A recombinant approach for stapled peptide discovery yields inhibitors of the RAD51 recombinase” (Chemical Science, 2023).

Assay [1] addresses monomeric version of RAD51 (HumRadA22) (Pyrococcus furiosus, UniProt O74036). Description: Fluorescence polarisation (FP) competition assay: displacement of fluorescein-labelled BRC4 repeat. Type of assay: binding, archaeal RadA mutant with human Rad51 surface residues. The note with it: read-out: FP competition KD, nM, Stapled; stapled product (linker DVT or DVP as in Table 1); 100 nM HumRadA22, 10 nM BRC4-fluorescein; 20 mM CHES pH 9.5, 150 mM NaCl, 0.1% BSA, 0.1% Tween-20; KD calculated from IC50; single titration, three technical replicates per point. An excerpt: We prepared all stapled peptides from small-scale bacterial cultures as GB1/C-His8 fusions and cyclised them with the DVT linker. For peptides SP10, SP11, SP12 and SP15, correct stapling was confirmed by MS, showing a similar composition to SP2 (Fig. S15–S18 ^†). Thus, we confirm that the pseudo-dilution approach is robust in yielding almost exclusively the cyclised product, irrespective of whether a helical or non-helical motif is being constrained. To examine the effect of introducing a covalent staple on affinity, a mock reaction was done in parallel for each peptide by splitting the IMAC elution into two halves and adding DMSO to the mock control instead of the linker. TCEP (500 μM) was included in the mock reaction to maintain the peptide in linear form by preventing disulfide formation. The peptides were tested in a fluorescence polarisation (FP) assay monitoring the displacement of a fluorescently-labelled BRC4 repeat from a monomeric version of RAD51 (HumRadA22), as reported previously.[25] […]
Fluorescence polarisation competition assay
FP competition assay was a modified version of a protocol described previously. Fluorescein-labelled HsBRC4 probe for this assay was kindly provided by Dr Laurens Lindenburg (Hollfelder group, Department of Biochemistry, University of Cambridge). Black 384-well flat-bottom microplates (Corning, 3821) were used with a 40 μl final reaction volume in all measurements. Following buffer conditions were used: 20 mM CHES pH 9.5, 150 mM NaCl, 0.1% BSA, 0.1% Tween-20. Each reaction contained 100 nM HumRadA22 and 10 nM BRC4-fluorescein. Two-fold serial dilutions of stapled peptides were added to the reactions. A free probe control reaction containing only 10 nM BRC4-fluorescein was used to calibrate gain and focal height. FP measurements were performed on Pherastar FX or Clariostar Plus (BMG Labtech) plate readers equipped with an FP 485-520-520 optic modules. Binding curves were fitted using the four-parameter logistic model with a variable Hill slope using Prism software (Graphpad). Regression fitting was performed using the least squares optimisation algorithm.
KD values were estimated from the fitted IC 50 parameters using a previously reported

The subject of a further assay is RAD51 foci in U2OS cells. Description: Immunofluorescence of IR-induced RAD51 foci formation. Type of assay: cell-based, human. As to conditions: 40 μM peptide for 1 hour, then 3 Gy IR or no radiation, 3 hours recovery, five independent experiments. The protocol:
We monitored the ability of SP30 and SP31 to disrupt IR-induced RAD51 foci formation using IF. Cells were pre-incubated with the peptides or with vehicle (control), after which they were either treated with no radiation or with 3 Gy IR and imaged after a 3 hours recovery. We observed RAD51 foci in the absence of peptide and IR treatment, which likely reflects recombination events associated with the basal replicative stress of U2OS cells (Fig. 5 and S4 ^†). As expected, IR treatment of control cells leads to an apparent increase in the number of RAD51 foci (Fig. 5 and S4 ^†). […] We also tested whether a linear version of SP31 (L31) also affects IR-induced and baseline foci counts in five independent experiments (Fig. S5 and S6 ^†). […] It is possible that in some of the experiments the unstapled cysteines of L31 formed a disulfide bridge in the oxidising environment of cell culture, which protected it against proteolytic degradation, similarly to chemical stapling.
(A) Representative immunofluorescence images of U2OS cells incubated with SP30 (40 μM, SP30), SP31 (40 μM, SP31) or vehicle alone (control) for 1 hour, after which they were treated with 3 Gy ionising radiation (3 Gy 3 h) or no radiation (noIR) and allowed to recover for 3 hours. Cells were stained with α-RAD51 and Hoechst 33342 as indicated. Scale bar is 10 μm. […]

“Also recorded” adds a separate entry of the source. Numbered stars: 1 amine (or outer) side, 2 acyl side, 3 side chain; on linkers, the order of the positions; unused ones are H or OH. Bridge positions count the residues as written; N and C are the ends. Peptide text beside a SMILES is read from it. X1 = Nc1nc(CC[*:1])cc(CC[*:2])n1

Regarding `CC(C)C[C@@H]1NC(=O)[C@H](CCCCN)NC(=O)[C@H](CCCCN)NC(=O)CNC(=O)[C@H](CO)NC(=O)[C@H](C)NC(=O)[C@H]([C@@H](C)O)NC(=O)[C@H](CO)NC(=O)[C@H](Cc2ccccc2)NC(=O)CNC(=O)[C@H](CO)NC(=O)[C@@H](NC(=O)CN)CSCCc2cc(nc(N)n2)CCSC[C@@H](C(=O)N[C@@H](CCC(N)=O)C(=O)N[C@@H](CCCCN)C(=O)N[C@@H](C)C(=O)N[C@H](C(=O)N[C@@H](CCCCN)C(=O)N[C@@H](CC(C)C)C(=O)N[C@@H](Cc2ccccc2)C(=O)N[C@@H](CO)C(=O)NCC(=O)O)C(C)C)NC(=O)[C@H](C)NC(=O)[C@H](CCC(N)=O)NC(=O)[C@H]([C@@H](C)O)NC(=O)[C@H](CO)NC(=O)[C@H](C(C)C)NC(=O)[C@H](CC(N)=O)NC1=O` [SP30] (H-GCSGFSTASGKKLNVSTQACQKAVKLFSG-OH; linker 2-20 via X1), the Kd – broadly, the concentration at which binding is half-saturated – in assay [1] is 13 nM. The “Effect on number of RAD51 foci” value in the assay with RAD51 foci in U2OS cells is given as “but not SP30, significantly reduces the number of RAD51 foci”.

Turning to `CC(C)C[C@@H]1NC(=O)[C@H](CCCCN)NC(=O)[C@H](CCCCN)NC(=O)CNC(=O)[C@H](CO)NC(=O)[C@H](C)NC(=O)[C@H]([C@@H](C)O)NC(=O)[C@H](CO)NC(=O)[C@H](Cc2ccccc2)NC(=O)CNC(=O)[C@H](CO)NC(=O)[C@@H](NC(=O)CNC(=O)CNC(=O)[C@H](CCCNC(=N)N)NC(=O)[C@H](CCCNC(=N)N)NC(=O)[C@H](CCCNC(=N)N)NC(=O)[C@H](CCCNC(=N)N)NC(=O)[C@H](CCCNC(=N)N)NC(=O)[C@H](CCCNC(=N)N)NC(=O)[C@H](CCCNC(=N)N)NC(=O)[C@H](CCCNC(=N)N)NC(=O)[C@H](CCCNC(=N)N)NC(=O)CN)CSCCc2cc(nc(N)n2)CCSC[C@@H](C(=O)N[C@@H](CCC(N)=O)C(=O)N[C@@H](CCCCN)C(=O)N[C@@H](C)C(=O)N[C@H](C(=O)N[C@@H](CCCCN)C(=O)N[C@@H](CC(C)C)C(=O)N[C@@H](Cc2ccccc2)C(=O)N[C@@H](CO)C(=O)NCC(=O)O)C(C)C)NC(=O)[C@H](C)NC(=O)[C@H](CCC(N)=O)NC(=O)[C@H]([C@@H](C)O)NC(=O)[C@H](CO)NC(=O)[C@H](C(C)C)NC(=O)[C@H](CC(N)=O)NC1=O` [SP31] (H-GRRRRRRRRRGGCSGFSTASGKKLNVSTQACQKAVKLFSG-OH; linker 13-31 via X1), in assay [1], the Kd is 14 nM. Moreover, the “Effect on number of RAD51 foci” value in the assay with RAD51 foci in U2OS cells was “significantly reduces the number of RAD51 foci in both IR-treated and untreated cells; also recorded: disrupts RAD51 foci formation”.
